# Measured values as given in article PMC6273229, “Imidazopyranotacrines as Non-Hepatotoxic, Selective Acetylcholinesterase Inhibitors, and Antioxidant Agents for Alzheimer′s Disease Therapy” (Molecules, 2016).
# Several values for one entry are separate records, joined by “and”; a condition that tells them apart may be missing. Equal values may be shown once. Entries after “also recorded” stand apart in the source; their conditions may differ. Read-outs that look alike come from different tables or passages of the source.
# Assays:
# [1] = Oxygen radical absorbance capacity by fluorescence (ORAC-FL); conditions: Trolox equivalents, mean ± SD
# Method: The antioxidant power of the imidazopyranotacrines 1–13 was determined by the oxygen radical absorbance capacity by fluorescence (ORAC-FL) method using fluorescein as fluorescent probe and Trolox (6-hydroxy-2,5,7,8-tetramethylchroman-2-carboxylic acid) as a reference compound. Results are expressed as Trolox equivalents (μmol Trolox per μmol test compound).
# The radical scavenging activity of imidazopyranotacrines 1–13 was determined by the ORAC-FL method using a Varioskan Flash plate reader with built-in injectors (Thermo Scientific). Trolox, 2,2′-azobis(amidinopropane) dihydrochloride (AAPH) and fluorescein (FL) were purchased from Sigma-Aldrich. The reaction was performed at 37 °C in 75 mM phosphate buffer (pH = 7.4), and the final volume reaction mixture was 200 µL. The final concentrations were 1–8 µM for Trolox and 0.1–1 µM for the tested compounds. Briefly, in a black 96-well microplate (Nunc), antioxidant (20 µL) and fluorescein (120 µL) were incubated for 15 min at 37 °C. Then, 2,2′-azobis(amidinopropane) dihydrochloride (60 µL) was added using the built-in injector. […] All assays were made in triplicate and at least three different assays were performed for each sample.
# The net AUC corresponding to a sample was calculated as follows: Net AUC = AUCantioxidant − AUCblank(2)
# Regression equations were calculated by plotting the net AUC against the antioxidant concentration. The ORAC value was obtained by dividing the slope of the latter curve by the slope of the Trolox curve obtained in the same assay. ORAC values was expressed as µmol of Trolox equivalent/µmol of imidazopyranotacrines. Data are expressed as mean ± SD.
# HepG2 cells = assay type: cell-based; conditions: for Cell viability (MTT reduction, % control): 24 h, mean ± S.E.M.; for hepatotoxicity on HepG2 cells (in words): cell viability assay, 1–1000 µM
# Method: The human hepatoma HepG2 line cells were purchased from American Type Culture Collection. The cells were cultured in Eagle’s Minimum Essential Medium (Ozyme, Montigny-le-Bretonneux, France) supplemented with 10% fetal bovine serum, 1X non-essential amino acids, 100 units/mL penicillin and […] streptomycin (Dutscher, Brumath, France). […] Prior to the experiment, cells were seeded in 96-well culture plates at a density of 0.1 × 10^6 cells per well. After 24 h of incubation, the culture medium was refreshed and 100 µL of the test compounds or DMSO (0.1%) were added. Compounds were tested at 7 concentrations (1–1000 µM) in triplicate.
# Cell viability, measured as the mitochondrial activity of living cells, was determined by quantitative colorimetric assay with 3-[4,5 dimethylthiazol-2-yl]-2,5-diphenyl-tetrazolium bromide (MTT). Briefly, after 24 h of treatment, cells were incubated with 50 µL MTT (0.5 mg/mL, Sigma Aldrich) at 37 °C for 2 h. Plates were centrifuged, MTT was removed and 100 µL DMSO was distributed per well. The absorbance was read at 570 nm by microplate spectrophotometry. Cell viability was expressed as percentage over controls (DMSO, 0.1%).
# [2] = molecular target: AChE from Electrophorus electricus (EeAChE) (Electrophorus electricus, UniProt O42275); assay: physchem; conditions: for solubility: pH 8
# AChE from Electrophorus electricus (EeAChE), sequence (O42275 24-633): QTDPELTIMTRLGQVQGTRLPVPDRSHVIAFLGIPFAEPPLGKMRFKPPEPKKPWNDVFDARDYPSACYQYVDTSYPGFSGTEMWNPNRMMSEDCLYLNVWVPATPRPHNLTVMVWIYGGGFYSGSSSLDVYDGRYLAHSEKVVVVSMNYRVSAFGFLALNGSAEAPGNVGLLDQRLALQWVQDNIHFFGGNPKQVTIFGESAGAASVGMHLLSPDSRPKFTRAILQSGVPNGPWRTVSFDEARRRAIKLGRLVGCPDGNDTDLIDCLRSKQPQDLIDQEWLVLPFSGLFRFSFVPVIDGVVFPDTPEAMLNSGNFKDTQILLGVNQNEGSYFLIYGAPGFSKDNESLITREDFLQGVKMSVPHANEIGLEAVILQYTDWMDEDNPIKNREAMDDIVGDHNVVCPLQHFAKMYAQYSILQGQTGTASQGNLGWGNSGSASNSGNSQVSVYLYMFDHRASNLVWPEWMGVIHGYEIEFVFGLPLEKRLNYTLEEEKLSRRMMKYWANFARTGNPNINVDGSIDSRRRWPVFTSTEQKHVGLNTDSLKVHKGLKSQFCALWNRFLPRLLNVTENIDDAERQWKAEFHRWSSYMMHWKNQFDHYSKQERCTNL
# Method: The inhibitory activity on AChE from Electrophorus electricus (type VI-S, Sigma, Milan, Italy), was evaluated spectrophotometrically by the method of Ellman et al.. AChE stock solution was prepared by dissolving EeAChE lyophilized powder (Sigma) in 0.1 M phosphate buffer (pH = 8.0) containing 0.1% Triton X-100. Stock solutions of the tested compounds (1 mM) were prepared in MeOH/H2O 50/50 (v/v) and diluted in MeOH/H2O 50/50 (v/v). […] Assay solutions with and without inhibitor were preincubated at 37 °C for 20 min followed by the addition of substrate. Blank solutions containing all components except EeAChE were prepared in parallel to account for the non-enzymatic hydrolysis of the substrate. Initial rate assays were performed at 37 °C with a Jasco V-530 double beam spectrophotometer. […] The velocity in the presence and absence of inhibitor were compared and % inhibition was calculated. The results were plotted by placing the percentage of inhibition in function of the decimal log of the final inhibitor concentration. Linear regression and IC50 values were calculated using Microcal Origin 3.5 software (Microcal Software, […]).
# [3] = molecular target: T1, BuChE from horse serum (eqBuChE) (Equus caballus, UniProt P81908); assay: biochemical; conditions: mean ± SEM
# T1 construct: BuChE from horse serum (lyophilized powder, Sigma-Aldrich); purchased Sigma-Aldrich; host or cells: horse serum
# T1 sequence (P81908 whole entry): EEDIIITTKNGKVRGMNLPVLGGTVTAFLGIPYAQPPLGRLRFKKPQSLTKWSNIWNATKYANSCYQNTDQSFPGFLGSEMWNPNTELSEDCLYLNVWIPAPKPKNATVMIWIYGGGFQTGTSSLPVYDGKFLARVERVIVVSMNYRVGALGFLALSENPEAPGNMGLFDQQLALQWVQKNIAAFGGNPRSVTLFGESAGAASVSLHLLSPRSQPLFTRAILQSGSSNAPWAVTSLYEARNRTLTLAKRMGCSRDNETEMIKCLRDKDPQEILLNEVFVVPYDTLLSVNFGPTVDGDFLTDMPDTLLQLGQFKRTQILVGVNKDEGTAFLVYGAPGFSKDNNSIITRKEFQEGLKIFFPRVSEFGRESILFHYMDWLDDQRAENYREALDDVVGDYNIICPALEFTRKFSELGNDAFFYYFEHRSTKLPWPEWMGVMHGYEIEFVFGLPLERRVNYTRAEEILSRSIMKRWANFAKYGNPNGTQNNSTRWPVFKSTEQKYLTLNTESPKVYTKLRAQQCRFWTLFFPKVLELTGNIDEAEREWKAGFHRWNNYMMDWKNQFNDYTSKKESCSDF
# Method: The % inhibitory activity on BuChE from horse serum (lyophilized powder, Sigma-Aldrich), was evaluated spectrophotometrically by the method of Ellman et al.. BuChE stock solutions were first dissolved in 0.1 M phosphate buffer (pH 8.0) and then aliquoted in small vials. Compounds were dissolved in DMSO at 10 mM. The reaction was carried out in a final volume of 3 mL of a 0.1 M phosphate-buffered solution at pH 8.0, containing 5,5′-dithiobis-2-nitrobenzoic acid (DTNB, 2625 µL, 0.35 mM, final concentration), eqBuChE (60 µL, 0.05 U/mL final concentration), tested compound (3 µL, 10 µM, final concentration) and 1% w/v Bovine Serum Albumin phosphate-buffered (pH 8.0) solution (BSA, 40 µL). The inhibition with respect to control without compound was determined by pre-incubating this mixture at rt with each compound for 10 min. After this period, butyrylthiocholine iodide (150 µL, 0.5 mM final concentration) was added and incubated for 15 min at rt.
# [4] = read-out: EeAChE % inhibition at the highest concentration
Compound,ORAC [1],IC50 [2],inhibition at 10 µM [3],other results
"7-(1-Methyl-1H-imidazol-2-yl)-9,10,11,12-tetrahydro-7H-benzo[7,8]chromeno[2,3-b]quinolin-8-amine [Compound 10]",2.75 ± 0.09 µmol Trolox/µmol compound,,,"Cell viability (MTT reduction, % control) (HepG2 cells; HepG2, 1 µM): 101.8 ± 4.2 % control; Cell viability (MTT reduction, % control) (HepG2 cells; HepG2, 3 µM): 100.7 ± 2.6 % control; Cell viability (MTT reduction, % control) (HepG2 cells; HepG2, 10 µM): 100.5 ± 1.9 % control; Cell viability (MTT reduction, % control) (HepG2 cells; HepG2, 30 µM): 71.4 ± 7.4 % control; Cell viability (MTT reduction, % control) (HepG2 cells; HepG2, 100 µM): 63.5 ± 6.2 % control; Cell viability (MTT reduction, % control) (HepG2 cells; HepG2, 300 µM): 64.8 ± 5.7 % control; Cell viability (MTT reduction, % control) (HepG2 cells; HepG2, 1000 µM): 66.8 ± 4.1 % control; hepatotoxicity on HepG2 cells (in words) (HepG2 cells): more toxic than tacrine; IC50 ([2]; read-out: EeAChE IC50 Values, mean ± SEM): 10.7 ± 0.2 µM; eqBuChE % Inhibition at 10 μM [3]: 25.0 ± 0.2%"
"CCOC(=O)C1=C(C)Oc2nc3c(c(N)c2C1c1nccn1C)CCC3 (centres unmarked) [Compound 1, Ethyl 5-amino-2-methyl-4-(1-methyl-1H-imidazol-2-yl)-4,6,7,8-tetrahydrocyclopenta[b]pyrano[3,2-e]pyridine-3-carboxylate]",0.34 ± 0.03 µmol Trolox/µmol compound,12.9 ± 0.3 µM,25.6 ± 0.7%,
"CCOC(=O)C1=C(C)Oc2nc3c(c(N)c2C1c1nccn1C)CCCC3 (centres unmarked) [Compound 2, Ethyl 5-amino-2-methyl-4-(1-methyl-1H-imidazol-2-yl)-6,7,8,9-tetrahydro-4H-pyrano[2,3-b]quinoline-3-carboxylate]",1.79 ± 0.17 µmol Trolox/µmol compound,11.5 ± 0.4 µM,34 ± 0.5%,"Cell viability (MTT reduction, % control) (HepG2 cells; HepG2, 1 µM): 102.7 ± 3.7 % control; Cell viability (MTT reduction, % control) (HepG2 cells; HepG2, 3 µM): 103.2 ± 4.4 % control; Cell viability (MTT reduction, % control) (HepG2 cells; HepG2, 10 µM): 101.3 ± 3.9 % control; Cell viability (MTT reduction, % control) (HepG2 cells; HepG2, 30 µM): 99.2 ± 2.6 % control; Cell viability (MTT reduction, % control) (HepG2 cells; HepG2, 100 µM): 93.0 ± 4.7 % control; Cell viability (MTT reduction, % control) (HepG2 cells; HepG2, 300 µM): 87.5 ± 3.2 % control; Cell viability (MTT reduction, % control) (HepG2 cells; HepG2, 1000 µM): 58.8 ± 2.1 % control; hepatotoxicity on HepG2 cells (in words) (HepG2 cells): safe even at 300 µM"
"CCOC(=O)C1=C(C)Oc2nc3c(c(N)c2C1c1nccn1C)CCCCC3 (centres unmarked) [Compound 3, Ethyl 5-amino-2-methyl-4-(1-methyl-1H-imidazol-2-yl)-4,6,7,8,9,10-hexahydrocyclohepta[b]pyrano[3,2-e]pyridine-3-carboxylate]",1.99 ± 0.23 µmol Trolox/µmol compound,432 ± 84 µM,32.2 ± 0.9%,
"CC(=O)C1=C(C)Oc2nc3c(c(N)c2C1c1nccn1C)CCCC3 (centres unmarked) [Compound 4, 1-(5-Amino-2-methyl-4-(1-methyl-1H-imidazol-2-yl)-6,7,8,9-tetrahydro-4H-pyrano[2,3-b]quinolin-3-yl)ethan-1-one]",2.31 µmol Trolox/µmol compound and 2.31 ± 0.29 µmol Trolox/µmol compound,38.7 ± 1.7 µM,24.9 ± 0.9%,"Cell viability (MTT reduction, % control) (HepG2 cells; HepG2, 1 µM): 107.7 ± 5.1 % control; Cell viability (MTT reduction, % control) (HepG2 cells; HepG2, 3 µM): 105.3 ± 2.9 % control; Cell viability (MTT reduction, % control) (HepG2 cells; HepG2, 10 µM): 102.1 ± 2.9 % control; Cell viability (MTT reduction, % control) (HepG2 cells; HepG2, 30 µM): 98.0 ± 3.1 % control; Cell viability (MTT reduction, % control) (HepG2 cells; HepG2, 100 µM): 104.6 ± 4.5 % control; Cell viability (MTT reduction, % control) (HepG2 cells; HepG2, 300 µM): 97.1 ± 3.0 % control; Cell viability (MTT reduction, % control) (HepG2 cells; HepG2, 1000 µM): 96.8 ± 1.5 % control; hepatotoxicity on HepG2 cells (in words) (HepG2 cells): non-hepatotoxic; also recorded: safe even at 300 µM; also recorded: non-toxic even at the highest tested concentration; also recorded: lack of hepatotoxicity even at very high concentration"
"Cn1ccnc1C1C2=C(CC(C)(C)CC2=O)Oc2nc3c(c(N)c21)CCC3 (centres unmarked) [Compound 5, 11-Amino-7,7-dimethyl-10-(1-methyl-1H-imidazol-2-yl)-2,3,6,7,8,10-hexahydrochromeno[2,3-b]cyclopenta[e]pyridin-9(1H)-one]",1.70 ± 0.33 µmol Trolox/µmol compound,158 ± 33 µM,12.9 ± 0.5%,
"Cn1ccnc1C1C2=C(CC(C)(C)CC2=O)Oc2nc3c(c(N)c21)CCCC3 (centres unmarked) [Compound 6, 11-Amino-3,3-dimethyl-12-(1-methyl-1H-imidazol-2-yl)-2,3,4,7,8,9,10,12-octahydro-1H-chromeno[2,3-b]quinolin-1-one]",2.34 µmol Trolox/µmol compound and 2.34 ± 0.31 µmol Trolox/µmol compound,37.8 ± 1.2 µM,33.5 ± 1.7%,
"Cn1ccnc1C1c2c(nc3c(c2N)CCC3)Oc2ccc3ccccc3c21 (centres unmarked) [Compound 7, 13-(1-Methyl-1H-imidazol-2-yl)-9,10,11,13-tetrahydrobenzo[5,6]chromeno[2,3-b]cyclopenta[e]pyridin-12-amine]",1.47 ± 0.13 µmol Trolox/µmol compound,8.41 ± 0.14 µM,50.5 ± 7.3%,
"Cn1ccnc1C1c2c(nc3c(c2N)CCCCC3)Oc2ccc3ccccc3c21 (centres unmarked) [Compound 9, 15-(1-Methyl-1H-imidazol-2-yl)-9,10,11,12,13,15-hexahydrobenzo[5,6]chromeno[2,3-b]cyclohepta[e]pyridin-14-amine]",1.35 ± 0.13 µmol Trolox/µmol compound,,15.1 ± 4.7%,"solubility [2]: 15 µM; inhibition at 15 µM [2, 4]: < 15%"
"Cn1ccnc1C1c2ccc3ccccc3c2Oc2nc3c(c(N)c21)CCCCC3 (centres unmarked) [Compound 11, 7-(1-Methyl-1H-imidazol-2-yl)-7,9,10,11,12,13-hexahydrobenzo[7,8]chromeno[2,3-b]cyclohepta[e]pyridin-8-amine]",2.33 µmol Trolox/µmol compound and 2.33 ± 0.13 µmol Trolox/µmol compound,,20.3 ± 3.7%,"solubility [2]: 25 µM; inhibition at 25 µM [2, 4]: < 15%"
"Cn1ccnc1C1c2ccc3cccnc3c2Oc2nc3c(c(N)c21)CCC3 (centres unmarked) [Compound 12, 7-(1-Methyl-1H-imidazol-2-yl)-7,9,10,11-tetrahydrocyclopenta[5′,6′]pyrido[3′,2′:5,6]pyrano[3,2-h]quinolin-8-amine]",1.88 ± 0.07 µmol Trolox/µmol compound,15.3 ± 0.6 µM,27.5 ± 1.1%,
"Cn1ccnc1C1c2ccc3cccnc3c2Oc2nc3c(c(N)c21)CCCCC3 (centres unmarked) [Compound 13, 7-(1-Methyl-1H-imidazol-2-yl)-7,9,10,11,12,13-hexahydrocyclohepta[5′,6′]pyrido[3′,2′:5,6]pyrano[3,2-h]quinolin-8-amine]",2.25 µmol Trolox/µmol compound and 2.25 ± 0.29 µmol Trolox/µmol compound,30 ± 2 µM,75.7 ± 2.3%,
